The results in this text go back to publication PMC4191062, “Development of αGlcN(1↔1)αMan-Based Lipid A Mimetics as a Novel Class of Potent Toll-like Receptor 4 Agonists” (Journal of Medicinal Chemistry, 2014).

In this assay the test system is bone marrow-derived macrophages (BMDM). Kind of assay: TNF-α and IL-6 production in mouse bone marrow-derived macrophages (ELISA). The conditions noted are these: mBMDM, 1 nM (1.8 ng/mL), 16 h. The assay is classed as cell-based, C57BL/6J mice. The procedure:
The ability of Lipid A mimetics 1–3 to induce the production of TNF-α and IL-6 from bone marrow-derived macrophages (BMDM) in mice was subsequently examined and compared to that of synthetic E. coli Lipid A and E. coli MPLA, which are reliable positive controls due to their chemical purity and homogeneity (Figure 6). […] Likewise, 1 nM (1.8 ng/mL) of 1 or 2 triggered the release of a 3-fold higher amount of IL-6 (1500 pg/mL) compared to Lipid A (500 pg/mL).
Bone-marrow-derived microphages (BMDMs) were isolated and differentiated from the bone marrow of C57BL/6J mice. The bone marrow was flushed from femur and fibia with RPMI media. The erythrocytes were lysed with 0.88% ammonium chloride, 15 min at 37 °C. A single-cell suspension of the bone marrow cells was then seeded in cell culture flasks at a concentration of 1 × 10^6 cells/mL in RPMI supplemented with 20% FBS and 40 ng/mL recombinant M-CSF. The cell culture medium was changed on day 3. On day 6, the differentiated cells were trypsinized, counted, and seeded in 24-well plates at a concentration of 1 × 10^6 cells/mL in RPMI supplemented with 10% FBS. After 24 h, the cells were stimulated with Lipid A mimetics 1–3 and with synthetic E. coli Lipid A/MPLA (E. coli O111:B4 LPS was used as positive control) for 16 h. The nanomolar concentrations of 1–3 were calculated according to the MW of the synthetic compounds. The supernatants were then tested for cytokines using Ready-Set-Go ELISA kits (eBioscience).

Compound `CCCCCCCCCCCCCC(=O)O[C@H](CCCCCCCCCCC)CC(=O)N[C@H]1[C@H](OC[C@H]2O[C@H](OP(=O)(O)O)[C@H](NC(=O)C[C@H](O)CCCCCCCCCCC)[C@@H](OC(=O)C[C@H](O)CCCCCCCCCCC)[C@@H]2O)O[C@H](CO)[C@@H](OP(=O)(O)O)[C@@H]1OC(=O)C[C@@H](CCCCCCCCCCC)OC(=O)CCCCCCCCCCCCC` [Lipid A] displayed an IL-6 release of 500 pg/mL.
